Data on one molecule can be found in patent publication US20170224664A1, “POWDER ORAL SUSPENSION FORMULATIONS OF ANTIBACTERIAL AGENTS” (Cempra Pharmaceuticals, Inc., priority 2014, published 2017).

Structures are written as SMILES. In brackets after ≈: the same amount, converted by molar mass.

A short description of data set [1]: Stability of SOL in the presence of excipients. It counts as physicochemical. From the text: It has unexpectedly been discovered that compounds described herein, such as SOL, are unstable in the presence of high relative amounts of sucralose. In another embodiment, the weight/weight ratio of API, such as SOL to sucralose is greater than about 3, greater than about 4, greater than about 5, greater than about 6, greater than about 7, greater than about 8, greater than about 9, or greater than about 10. Illustratively, the POS and suspension formulations described herein include one of more souring agents. It has unexpectedly been discovered that compounds described herein, such as SOL, are unstable in the presence of high relative amounts of citric acid. In another embodiment, the weight/weight ratio of API, such as SOL to citric acid is greater than about 50, greater than about 60, greater than about 70, greater than about 80, or greater than about 90. In another embodiment, the POS and suspension formulations described herein are substantially free of, or free of citric acid.

The nature of data set [2]: Solubility of SOL at different pH. It counts as physicochemical. The source says: It has been discovered herein that the solubility of the compounds described herein generally decreases with increasing pH. […] It has also been discovered herein that at certain pH levels, a stable aqueous suspension of the compounds may be prepared. That suspension may also be prepared from a reconstitutable powder for oral suspension (POS). However, it has also been discovered that at certain limiting pH levels, a threshold amount of the compounds described herein are in solution and therefore such an oral suspension may have a bitter taste that compromises the efficacy thereof, such as due to poor patient compliance.

Turning to `CC[C@H]1OC(=O)[C@@](C)(F)C(=O)[C@H](C)[C@@H](O[C@@H]2O[C@H](C)C[C@H](N(C)C)[C@H]2O)[C@](C)(OC)C[C@@H](C)C(=O)[C@H](C)[C@H]2N(CCCCn3cc(-c4cccc(N)c4)nn3)C(=O)O[C@]12C` [SOL, solithromycin], the “stability in the presence of citric acid” value in data set [1] (high relative amounts of citric acid) is recorded as “unstable”. Further, in data set [1] (high relative amounts of sucralose), the “stability in the presence of sucralose” value was “unstable”. For the same molecule, the solubility (commonly the concentration that dissolves in the medium under given conditions) in data set [2] (pH 5.7, aqueous buffer) worked out at 68000 µg/mL (≈ 80500 µM); in data set [2] (pH 6.2, aqueous buffer), 860 µg/mL (≈ 1020 µM); in data set [2] (pH 7.5, aqueous buffer), 70 µg/mL (≈ 82.8 µM).
